pIC50: −log10 of the molar value. Values after ≈ are worked out from the molar mass of the structure shown. “Also recorded” adds a separate entry of the source. Where two headings read alike, the source gives them in different places.
What was measured:
[1] = target: T1, HIV-1 reverse transcriptase (Human immunodeficiency virus type 1 group M subtype B, UniProt P04585); test: HIV-1 reverse transcriptase biochemical assay (EnzChek); settings: for anti-HIV-1 RT activity (in words): screened at 3.1-100 μM
T1 construct: The reverse transcriptase is a heterodimer with the p66 and the p51 subunits; purchased Calbiochem, Merck-Millipore
Protocol: The HIV-1 reverse transcriptase inhibition assay was carried out using the commercial kit EnzChek® Reverse Transcriptase Assay (Invitrogen, San Jose, Calif., USA). The reverse transcriptase is a heterodimer with the p66 and the p51 subunits with RNase H activity located in the last 15 KDa of the p66 HIV Reverse transcriptase (Calbiochem, Merck-Millipore). Polymerase activity was assessed by its ability to produce RNA-DNA heteroduplexes from a mixture of a long poly (A) template, an oligo dT primer and dTTP which is then detected by PicoGreen® dsDNA quantitation reagent. The single compound and controls were performed in triplicated in a 384-well plate format, each with a total reaction mixture of 50 μL. To begin, the poly (A) template was annealed to the oligo dT primer for one hour, then diluted 200 fold in polymerization buffer. Reverse transcriptase (1.2 μl) was added per 300 reactions. This mixture was kept on ice and aliquoted to each well with test compounds. The reaction was incubated at room temperature for one hour and then 2 μl of […] EDTA was added to stop the reaction. The RNA-DNA heteroduplex was labeled with PicoGreen and incubated for 5 minutes and then detected with the use of a SpectraMax® Paradigm® Multi-mode Microplate Detection Platform (Molecular Devices, Sunnyvale, Calif., USA) by scanning at 480 nm excitation wavelength and 520 nm emission wavelength. […] Statistical significances were determined using a one-way ANOVA.

[2] = vendor data, Enzo Life Sciences, cited from earlier work
LC5-RIC cells = test: MTT cell proliferation (vitality) assay of infected LC5-RIC cells; assay type: cell-based; settings: for concentrations at which cytotoxicity was observed / cytotoxicity (in words): LC5-RIC cells; for cytotoxicity (in words): tested concentrations 3.1-50 μM
Protocol: The colorimetric assay […] was used in order to assess the viability and activity of LC5-RIC cells exposed to the unknown sponge mixtures, SPE fraction 1 and HPLC fractions 1-11, for three biological replicates. This cell vitality assay provides a visualization of the process where mitochondrial enzymes reduce the yellow MTT to purple formazan (ATCC, MTT cell proliferation assay). After reading the HIV reporter expression, cultures were incubated with 100 μl of MTT solution (0.5 mg of […]; Sigma, Taufkirchen, Germany) in 100 μl of culture medium for 2 hours. MTT solution was removed and 100 μl of lysis solution (10% [wt/vol] SDS and 0.6% [vol/vol] acetic acid in dimethyl sulfoxide [DMSO]) was added. The formazan concentrations of the test compounds and the uninfected control cultures were determined by an ELISA plate reader (Tecan Infinite M200, Tecan Germany GmbH, Crailsheim) and scanned with a test wavelength of 570 nm and a reference wavelength of 630 nm.

HIV-1 [3] = test: microbe, parasite or virus in culture; settings: Human immunodeficiency virus 1, read-out: concentration giving 50% inhibition of HIV-1 (viral replication)
Protocol: (§1) The EASY-HIT assay (Kremb et al. [11]) is based on HIV-1 susceptible reporter cells (LC5-RIC) that contain a stably integrated fluorescent reporter gene that is activated upon successful HIV-1 infection and expression of the early viral proteins Rev and Tat. LC5-RIC were seeded into 96-well plates (μCLEAR-Plate Black; Greiner Bio-One, Kremsmuenster, Germany) using only the 60 inner wells to avoid variations in the culture conditions in the outer wells. Cells were seeded ata density of 10,000 cells per well 24 hours prior to infection. SPE fractions for the biological replicates C26, C14 and D5, were tested in a serial 1:2-dilution with a maximum of 3% methanol or approximately 75 μg/ml for the S. carteri fraction 1 mixture on the EASY-HIT assay [11]. For the HPLC fractions, SPE fraction 1 HPLC fractions 1-11, were tested on the EASY-HIT assay for biological replicates C26, C14 and D5. The authentic samples of HD, DBH, and oroidin were screened at 3.1 μM, 6.25 μM, 12.5 μM, 25 μM, and 50 μM. All samples were tested in triplicates. After compound addition, LC5-RIC cells were infected by adding 20 μl of HIV-1 inoculum (approx. 28.8 ng of p24 for HIV-1LAI derived from HEK 293T cells) to each well of the plate. Cells were incubated at standard cell culture conditions for 48 hours after infection and were subsequently assayed for reporter expression and cell viability.
(§2) Reporter expression was determined by measuring the total fluorescent signal intensity of each culture with a fluorescence microplate reader (Fluoroskan Ascent; ThermoFisher, Schwerte, Germany) at an excitation filter wavelength of 544 nm and an emission filter wavelength of 590 nm or with a Tecan infinite M200 (Tecan, Crailsheim, Germany) at the monochromator wavelengths 552 nm for excitation and 596 for emission. Statistical significances were determined using one-way ANOVA.

HIV-1 [4] = tested on: HIV-1
Protocol: as §1, §2

HIV = settings: concentrations not detailed; cited from earlier work

Row | Compound | anti-HIV-1 RT activity (in words) [1] | solubility (in words) [2] | effect on cell vitality (LC5-RIC cells; 13 μM) | concentrations at which cytotoxicity was observed (LC5-RIC cells) | cytotoxicity (in words) (LC5-RIC cells) | pIC50 (HIV-1 [3]) | HIV-1 infection, % of untreated controls (HIV-1 [4]; 13 μM) [%] | solubility in DMSO ([2]; DMSO) [µg/mL] | effect on cell vitality (LC5-RIC cells; 3.1 μM) | HIV infection, % of untreated controls (HIV-1 [4]; 3.1 μM) [%] | inhibition of HIV-1 replication (in words) (HIV-1 [4]; EASY-HIT, LC5-RIC cells) | ability to inhibit HIV replication, previous study (HIV) | inhibition of HIV-1 reverse transcriptase activity ([1]; 25 μM) | inhibition of the HIV-1 RT enzyme ([1]; concentrations greater than 25 μM) [%] | cytotoxicity (in words) (LC5-RIC cells; listed as Oroidin) | HIV-1 infection, % of untreated controls (HIV-1 [4]; 50 μM) [%] | reduction of HIV-1 replication (HIV-1 [4]; 50 μM) | inhibition of HIV-1 replication (in words) (HIV-1 [4]; EASY-HIT, LC5-RIC cells, listed as Oroidin) | pIC50 (HIV-1 [4]; read-out: concentration giving 50% inhibition of HIV-1 (viral replication), EASY-HIT, LC5-RIC cells, purchased pure compounds)
1 | NC1=NC(=O)/C(=C2\CCNC(=O)c3[nH]ccc32)N1 [DBH, 4-(2-Amino-4-oxo-2-imidazolin-5-ylidene)-4,5,6,7-tetrahydropyrrolo[2,3-c]azepin-8-one] | did not show anti-HIV-1 RT activity; also recorded: do not affect this enzyme | Soluble in 100% ethanol or DMSO | without affecting cell vitality | greater than 13 μM | exhibited cytotoxicity | 5.15 | 30 | – | – | – | – | – | – | – | – | – | – | – | –
2 | NC1=NC(=O)/C(=C2\CCNC(=O)c3[nH]c(Br)cc32)N1 [HD, 10Z-Hymenialdisine] | did not show anti-HIV-1 RT activity; also recorded: do not affect this enzyme | – | – | greater than 3.1 μM | exhibited cytotoxicity | 4.89 | – | 5000 (≈ 15.4 mM) | without affecting cell vitality | < 40 | capable of inhibiting HIV-1 replication | – | – | – | – | – | – | – | –
3 | Nc1ncc(/C=C/CNC(=O)c2cc(Br)c(Br)[nH]2)[nH]1 [oroidin] | directly acting to inhibit the retroviral reverse transcriptase | – | – | – | non-cytotoxic at all tested concentrations; also recorded: without causing cytotoxicity; also recorded: no associated toxicity | – | – | – | – | – | capable of inhibiting HIV-1 replication | inactive | up to 90% | 90 | nontoxic for cells at all tested concentrations | 50 | up to 50% | weakest antiviral activity | 4.30
